The results in this text go back to ChEMBL document CHEMBL4706508, “Discovery of first-in-class multi-target adenosine A receptor antagonists-carbonic anhydrase IX and XII inhibitors. 8-Amino-6-aryl-2-phenyl-1,2,4-triazolo [4,3-a]pyrazin-3-one derivatives as new potential antitumor agents” (Eur J Med Chem, 2020).

One assay has as its target Adenosine receptor A2a (Homo sapiens, UniProt P29274). Nature of the assay: Displacement of [3H]-NECA from human A2A receptor stably expressed in CHO cell membranes by radioligand competitive binding assay. Further details: species or system Cell membrane. Background: Displacement assays read how much labelled ligand stays bound in the presence of the test substance.
The next assay has as its target Carbonic anhydrase 9 (Homo sapiens, UniProt Q16790). Nature of the assay: Inhibition of human CA9 incubated for 15 mins by stopped- flow CO2 hydrase assay method.
The target of another assay is T1, Adenosine receptor A3 (Homo sapiens, UniProt P0DMS8).
T1 sequence (P0DMS8 whole entry): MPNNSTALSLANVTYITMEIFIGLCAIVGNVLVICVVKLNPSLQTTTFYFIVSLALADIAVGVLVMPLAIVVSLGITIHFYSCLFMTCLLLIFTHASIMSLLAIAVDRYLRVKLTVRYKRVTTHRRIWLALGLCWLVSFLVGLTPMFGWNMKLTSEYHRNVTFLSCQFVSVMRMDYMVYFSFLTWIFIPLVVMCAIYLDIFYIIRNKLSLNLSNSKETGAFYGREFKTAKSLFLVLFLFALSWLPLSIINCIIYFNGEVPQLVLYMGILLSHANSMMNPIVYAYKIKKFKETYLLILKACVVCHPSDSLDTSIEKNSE
Nature of the assay: Displacement of [3H]-HEMADO from human A3 receptor stably expressed in CHO cell membranes by radioligand competitive binding assay. On the set-up: species or system Cell membrane.

The target in a further assay is Carbonic anhydrase 2 (Homo sapiens, UniProt P00918). Nature of the assay: Inhibition of human CA2 incubated for 15 mins by stopped- flow CO2 hydrase assay method.
A further assay concerns the target Carbonic anhydrase 1 (Homo sapiens, UniProt P00915). Nature of the assay: Inhibition of human CA1 incubated for 15 mins by stopped- flow CO2 hydrase assay method.
Another assay concerns the target Carbonic anhydrase 12 (Homo sapiens, UniProt O43570). Nature of the assay: Inhibition of human CA12 incubated for 15 mins by stopped- flow CO2 hydrase assay method.
In the next assay the target is T2, Adenosine receptor A2b (Homo sapiens, UniProt P29275).
T2 sequence (P29275 whole entry): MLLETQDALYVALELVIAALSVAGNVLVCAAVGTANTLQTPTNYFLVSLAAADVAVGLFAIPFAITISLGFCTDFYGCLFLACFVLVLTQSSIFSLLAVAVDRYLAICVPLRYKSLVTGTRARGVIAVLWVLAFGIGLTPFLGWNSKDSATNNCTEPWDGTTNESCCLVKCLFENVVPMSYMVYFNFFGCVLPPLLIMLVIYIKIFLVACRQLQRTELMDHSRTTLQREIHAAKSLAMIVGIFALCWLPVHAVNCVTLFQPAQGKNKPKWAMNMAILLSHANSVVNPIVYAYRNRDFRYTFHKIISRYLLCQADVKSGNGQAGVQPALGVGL
Nature of the assay: Antagonist activity at human A2B receptor expressed in CHO cell membrane assessed as reduction in NECA-[…] level by GloSensor CAMP assay. In kind it is cell membranes.

The target in another assay is T3, Adenosine receptor A1 (Homo sapiens, UniProt P30542).
T3 sequence (P30542 whole entry): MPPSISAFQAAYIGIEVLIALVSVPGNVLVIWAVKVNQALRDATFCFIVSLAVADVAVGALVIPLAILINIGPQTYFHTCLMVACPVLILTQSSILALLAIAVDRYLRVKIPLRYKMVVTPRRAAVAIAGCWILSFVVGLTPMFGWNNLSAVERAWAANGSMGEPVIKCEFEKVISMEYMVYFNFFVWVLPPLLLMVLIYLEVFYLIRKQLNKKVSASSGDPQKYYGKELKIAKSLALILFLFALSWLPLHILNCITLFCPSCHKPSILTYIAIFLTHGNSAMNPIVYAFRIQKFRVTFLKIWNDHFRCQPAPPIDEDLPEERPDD
Nature of the assay: Displacement of [3H]-CCPA from human A1 receptor stably expressed in CHO cell membranes by radioligand competitive binding assay. On the set-up: species or system Cell membrane.

Adenosine receptor A2a, sequence (P29274 whole entry): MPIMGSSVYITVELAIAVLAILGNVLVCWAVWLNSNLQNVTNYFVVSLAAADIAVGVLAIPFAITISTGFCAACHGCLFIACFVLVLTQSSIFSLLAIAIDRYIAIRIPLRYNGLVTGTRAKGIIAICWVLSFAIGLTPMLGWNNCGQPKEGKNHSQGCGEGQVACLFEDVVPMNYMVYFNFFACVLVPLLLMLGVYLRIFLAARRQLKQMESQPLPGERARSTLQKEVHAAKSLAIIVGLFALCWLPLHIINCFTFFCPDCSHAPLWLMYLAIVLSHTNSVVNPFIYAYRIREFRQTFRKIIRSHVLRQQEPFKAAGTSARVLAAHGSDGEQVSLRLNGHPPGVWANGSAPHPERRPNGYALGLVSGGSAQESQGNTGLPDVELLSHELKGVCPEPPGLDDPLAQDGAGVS
Carbonic anhydrase 12, sequence (O43570 whole entry): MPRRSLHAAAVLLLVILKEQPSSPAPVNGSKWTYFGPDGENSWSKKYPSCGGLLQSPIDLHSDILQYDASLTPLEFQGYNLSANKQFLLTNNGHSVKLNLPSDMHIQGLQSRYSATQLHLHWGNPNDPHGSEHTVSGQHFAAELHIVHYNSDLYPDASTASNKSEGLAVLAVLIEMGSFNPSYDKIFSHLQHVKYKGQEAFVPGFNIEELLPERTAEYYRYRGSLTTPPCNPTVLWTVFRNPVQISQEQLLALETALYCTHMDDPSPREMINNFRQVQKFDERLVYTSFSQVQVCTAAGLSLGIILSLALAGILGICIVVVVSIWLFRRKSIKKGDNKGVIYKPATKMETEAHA
Carbonic anhydrase 1, sequence (P00915 whole entry): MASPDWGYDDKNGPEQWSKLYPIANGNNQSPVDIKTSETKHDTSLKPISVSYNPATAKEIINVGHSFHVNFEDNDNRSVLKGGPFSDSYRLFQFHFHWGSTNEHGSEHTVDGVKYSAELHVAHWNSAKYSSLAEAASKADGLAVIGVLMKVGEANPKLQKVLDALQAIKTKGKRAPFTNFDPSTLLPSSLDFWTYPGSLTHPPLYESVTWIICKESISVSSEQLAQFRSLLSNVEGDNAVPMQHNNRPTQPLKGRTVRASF

The Ki is a dissociation constant, usually derived from enzyme kinetics or from competition with a known ligand. What is called IC50 is the midpoint of a concentration-inhibition curve. Turning to `Nc1nc(-c2ccc(NC(=O)CCNCCc3ccc(S(N)(=O)=O)cc3)cc2)cn2c(=O)n(-c3ccccc3)nc12`, the Ki is 10.6 nM on Adenosine receptor A2a; 109 nM at Carbonic anhydrase 9; 5830 nM at Adenosine receptor A3; 526 nM on Carbonic anhydrase 2; 8710 nM at Carbonic anhydrase 1; 0.263 nM on Carbonic anhydrase 12. In addition, affinity at Adenosine receptor A1 was put at a Ki of 1030 nM. Also, the IC50 on Adenosine receptor A2b was over 30000 nM.

With `Nc1nc(-c2ccc(NC(=O)CCNCc3ccc(S(N)(=O)=O)cc3)cc2)cn2c(=O)n(-c3ccccc3)nc12`, the inhibitory constant (Ki) was 96.3 nM on Adenosine receptor A2a; 319 nM at Carbonic anhydrase 9; over 30000 nM at Adenosine receptor A3; 6760 nM on Carbonic anhydrase 2; 9000 nM at Carbonic anhydrase 1; 41.5 nM on Carbonic anhydrase 12. The same compound showed a Ki on Adenosine receptor A1 of 839 nM. Moreover, the IC50 at Adenosine receptor A2b was over 30000 nM.

Regarding `Nc1nc(-c2ccc(OCCNC(=O)c3ccc(S(N)(=O)=O)cc3)cc2)cn2c(=O)n(-c3ccccc3)nc12`, the Ki on Adenosine receptor A2a turned out to be 6.8 nM; on Carbonic anhydrase 9, 5950 nM; on Adenosine receptor A3, 6650 nM; on Carbonic anhydrase 2 it was 183 nM; at Carbonic anhydrase 1, 934 nM; on Carbonic anhydrase 12, 528 nM. Besides, at Adenosine receptor A1, the Ki turned out to be 420 nM. The IC50 on Adenosine receptor A2b is over 30000 nM.

Turning to `Nc1nc(-c2ccc(NC(=O)c3cccc(S(N)(=O)=O)c3)cc2)cn2c(=O)n(-c3ccccc3)nc12`, the Ki at Adenosine receptor A2a was 13.5 nM; at Carbonic anhydrase 9, 810 nM; at Adenosine receptor A3, over 30000 nM; on Carbonic anhydrase 2, 367 nM; on Carbonic anhydrase 1 it was 2290 nM; on Carbonic anhydrase 12, 303 nM. For the same compound, the inhibitory constant (Ki) at Adenosine receptor A1 turned out to be 1210 nM. Moreover, the IC50 at Adenosine receptor A2b is over 30000 nM.
